For orientation: IC50 means the concentration that inhibits the measured activity by half.

Here are results for 5 compounds from patent US12473274B2, “Heterocyclic compound as inhibitor of casein kinase 1-δ and/or activin receptor-like kinase 5” (Alchemedicine, Inc., priority 2020, dated 2025).

Structures are written as SMILES.

Type in all cases: biochemical
One assay deals with T1, human p38α (Homo sapiens, UniProt Q16539).
T1 construct: GST (N); made in house; host or cells: E. coli
In words: Test Example 1: p38α inhibition action (mobility shift, LabChip). As to conditions: Modified Erktide 1 μM, ATP 150 μM, Mg 5 mM, 1 hour room temperature. As for the experimental part:
(§1) Evaluation of CK1δ Inhibitory Activity and p38α Inhibition Action
(§2) 1. Preparation of Solution of Test Substance
(§3) A test substance was dissolved in dimethyl sulfoxide (DMSO). The solution was further diluted with DMSO to prepare a solution at a concentration 100-fold greater than the test concentration. The solution was further 25-fold diluted with an assay buffer to prepare a solution of the test substance. The positive control substance was also treated as above to prepare a solution of the positive control substance.
(§4) 2. Preparation of Kinase Protein
p38α: Used was the human p38α prepared as followed: GST (66 KDa) was fused with the N-terminal of the 9-352 amino acid sequence site in accession number NP_620581.1, followed by expression in E. coli and then refining by a glutathione sepharose chromatography system, and the product was activated with His-tagged MAP2K6, and was again purified by the glutathione sepharose chromatography system.
(§5) 3. Reagent and Test Method
(§6) 5 μL of a 4-fold solution of the test substance prepared with an assay buffer (20 mM HEPES, 0.01% Triton X-100, 2 mM DTT, pH: 7.5), 5 μL of a 4-fold substrate/ATP/metal solution, and 10 μL of a 2-fold kinase solution were mixed in wells of a 384-well plate made of polypropylene, and were reacted at room temperature for 1 hour. 70 μL of Termination Buffer (QuickScout Screening Assist MSA; Carna Biosciences) was added to terminate the reaction. The substrate peptide and phosphorylated peptide in the reaction solution were separated by a LabChip system (Perkin Elmer), and were quantitated. The kinase reaction was evaluated based on the product ratio (P/(P+S)) calculated from the substrate peptide peak height (S) and the phosphorylated peptide peak height (P).
(§7) The average signal from control wells containing all the reaction components was defined as 0% inhibition, and the average signal from background wells (enzyme not added) was defined as 100% inhibition. The inhibition rate was calculated from the average signal of test wells containing each test substance. The IC50 value was determined through approximation of the plot against the test substance concentration and the inhibition rate to a 4-parameter logistic curve by non-linear least squares. The compounds in Examples had good CK1δ inhibition activity. A large difference was found between the CK1δ inhibition concentration and the p38α inhibition concentration.

For a further assay, the target named is T2, human CK1δ (Homo sapiens, UniProt P48730).
T2 construct: GST (N); made in house; host or cells: E. coli
T2 sequence (P48730 1-294): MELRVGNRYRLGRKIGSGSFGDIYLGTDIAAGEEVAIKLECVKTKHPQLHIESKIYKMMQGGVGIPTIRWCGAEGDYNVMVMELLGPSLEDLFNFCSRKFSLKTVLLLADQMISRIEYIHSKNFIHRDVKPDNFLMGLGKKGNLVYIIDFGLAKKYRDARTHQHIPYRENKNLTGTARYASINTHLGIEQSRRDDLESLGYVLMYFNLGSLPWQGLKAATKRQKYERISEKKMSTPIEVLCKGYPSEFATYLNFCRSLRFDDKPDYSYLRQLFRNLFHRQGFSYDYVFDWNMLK
In words: Test Example 1: CK1δ inhibitory activity (mobility shift, LabChip). As to conditions: for IC50: CKtide 1 μM, ATP 10 μM, Mg 5 mM, 1 hour room temperature; for Ratio (p38α/CK1δ): ratio of p38α IC50 to CK1δ IC50, Test Example 1. As for the experimental part: as §1, §2, §3, §4
CK1δ: Used was the human CK1δ prepared by fusing GST (61 KDa) with the N-terminal of the human CK1δ enzyme activity domain (1-294 amino acid sequence site in accession number NP_001884.2), followed by expression in E. coli and then refining by a glutathione sepharose chromatography system.
as §5, §6, §7

Assay [1] deals with T3, ALK5 (Homo sapiens, UniProt P36897).
T3 sequence (P36897 34-503): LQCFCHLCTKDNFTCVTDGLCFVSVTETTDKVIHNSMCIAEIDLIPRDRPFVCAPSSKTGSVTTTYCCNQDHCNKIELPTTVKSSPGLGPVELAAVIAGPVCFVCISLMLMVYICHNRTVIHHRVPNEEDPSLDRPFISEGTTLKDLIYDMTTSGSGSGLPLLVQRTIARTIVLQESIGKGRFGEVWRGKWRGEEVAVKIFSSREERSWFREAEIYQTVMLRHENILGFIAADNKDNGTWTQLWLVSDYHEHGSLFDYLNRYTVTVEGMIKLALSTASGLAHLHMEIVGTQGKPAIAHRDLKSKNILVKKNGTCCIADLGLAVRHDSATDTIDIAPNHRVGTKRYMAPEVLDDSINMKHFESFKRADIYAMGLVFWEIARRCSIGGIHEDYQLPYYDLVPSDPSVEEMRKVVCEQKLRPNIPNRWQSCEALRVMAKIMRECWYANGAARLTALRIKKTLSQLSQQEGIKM
Kind of assay: Test Example 2: ALK5 inhibition action (ADP-Glo kinase assay). How it is done: (§8) Evaluation of ALK5 Inhibition Action
as §2
A 10% DMSO stock solution (compound concentration: 10 mM) containing 0.1 mg/mL BSA (bovine serum albumin) was prepared as a solution of the test substance.
3. Reagent, Test Method, and Reaction Conditions
A kinase assay was performed using ADP-Glo™ assay kit available from Promega Corporation according to the following assay reaction recipe: • Component 1: 1 μL diluted active protein kinase • Component 2: 1 μL of the substrate • Component 3: 1 μL kinase assay buffer • Component 4: 1 μL of the compound (10 concentrations) or 10% DMSO • Component 5: 1 μL ATP stock (25 μM final well concentration)
The assay started with incubation of the reaction mixture in a 384-well plate at room temperature for 40 minutes. After the incubation, 5 μL ADP-Glo™ reagent was added. The plate was shaken, followed by incubation at room temperature for 40 minutes. […] The plate was measured on a GloMax plate reader using ADP-Glo™ Luminescence Protocol. […] The corrected activity value was calculated by subtracting the value of the blank control from the measured value.
The relative luminescence unit (RLU) was measured at 10 compound concentrations between 0.3 nM and 10,000 nM. The inhibition rate was calculated as follows: {(Control RLU−Test RLU)/(Control RLU−Background RLU)}×100 […]
(ADP-Glo first removes unused ATP, then detects ADP through luciferase.)

Assay [2] concerns the target T3, ALK5. In words: Test Example 3: ALK5 inhibition action (ADP-Glo, SignalChem enzyme). As to conditions: enzyme 5 ng/μL, TGFBR1 Peptide 200 ng/μL, ATP 25 μM, 2 hours. Also noted: GST; purchased SignalChem T07-11G. How it is done: as §8
(§9) Using a human recombinant GST-tagged TGFB available from SignalChem (Catalog No. T07-11G), a substrate peptide TGFBR1 Peptide (Catalog No. T36-58), and ADP-Glo assay kit (Promega Corporation), measurement was performed on a 5-μL reaction system in a 384-well plate (GloMax plate reader) according to the document attached to the ADP-Glo assay kit. For the reaction conditions used, the enzyme concentration was 5 ng/μL, the substrate concentration was 200 ng/μL, the ATP concentration was 25 μM, and the reaction time was 2 hours. The IC50 value was calculated using GraphPad Prism version 5.01 based on the inhibition rate where the test substance (8 to 10 concentrations, diluted 3-fold from 3000 nM) was added.

For assay [3], the target named is T4, human recombinant GST-tagged CK1δ (Homo sapiens, UniProt P48730).
T4 construct: GST; purchased SignalChem C65-10G
T4 sequence (P48730 whole entry): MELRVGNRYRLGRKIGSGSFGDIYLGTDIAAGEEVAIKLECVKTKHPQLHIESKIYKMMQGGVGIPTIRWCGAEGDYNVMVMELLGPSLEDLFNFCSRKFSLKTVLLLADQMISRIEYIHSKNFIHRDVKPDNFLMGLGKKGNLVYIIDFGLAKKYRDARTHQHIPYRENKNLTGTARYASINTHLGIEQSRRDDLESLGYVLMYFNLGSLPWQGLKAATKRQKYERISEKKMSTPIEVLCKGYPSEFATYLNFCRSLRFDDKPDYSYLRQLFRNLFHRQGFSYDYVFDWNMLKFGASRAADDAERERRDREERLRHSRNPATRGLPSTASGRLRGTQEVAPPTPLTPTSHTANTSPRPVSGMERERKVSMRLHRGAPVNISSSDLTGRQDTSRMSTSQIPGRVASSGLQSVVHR
In words: Test Example 4: CK1δ inhibition action (ADP-Glo, SignalChem enzyme). As to conditions: enzyme 2 ng/μL, Casein Dephosphorylated 200 ng/μL, ATP 25 μM, 40 minutes. How it is done: Evaluation of CK1δ Inhibition Action
as §9, with “GST-tagged CK1δ” for “GST-tagged TGFB”, “No. C65-10G),” for “No. T07-11G),”, “peptide Casein Dephosphorylated” for “peptide TGFBR1 Peptide”, “No. C03-54BN),” for “No. T36-58),”, “was 2” for “was 5”, “was 40 minutes.” for “was 2 hours.”

Assay [4] addresses T5, human recombinant GST-tagged p38α (Homo sapiens, UniProt Q16539).
T5 construct: GST; purchased SignalChem M39-10 BG
Kind of assay: Test Example 5: p38α inhibition action (ADP-Glo, SignalChem enzyme). As to conditions: enzyme 2 ng/μL, p38 Substrate 100 ng/μL, ATP 25 μM, 40 minutes. How it is done: Evaluation of p38α Inhibition Action
Using a human recombinant GST-tagged p38α available from SignalChem (Catalog No. M39-10 BG), a substrate peptide p38 Substrate (Catalog No. P03-58), and ADP-Glo assay kit (Promega Corporation), measurement was performed on a 5-μL reaction system in a 384-well plate (GloMax plate reader) according to the document attached to the ADP-Glo assay kit. For the reaction conditions used, the enzyme concentration was 2 ng/μL, the substrate concentration was 100 ng/μL, the ATP concentration was 25 μM, and the reaction time was 40 minutes. The IC50 value was calculated using GraphPad Prism version 5.01 based on the inhibition rate where the test substance (8 to 10 concentrations, diluted 3-fold from 3000 nM) was added.

T1 sequence (Q16539 9-352): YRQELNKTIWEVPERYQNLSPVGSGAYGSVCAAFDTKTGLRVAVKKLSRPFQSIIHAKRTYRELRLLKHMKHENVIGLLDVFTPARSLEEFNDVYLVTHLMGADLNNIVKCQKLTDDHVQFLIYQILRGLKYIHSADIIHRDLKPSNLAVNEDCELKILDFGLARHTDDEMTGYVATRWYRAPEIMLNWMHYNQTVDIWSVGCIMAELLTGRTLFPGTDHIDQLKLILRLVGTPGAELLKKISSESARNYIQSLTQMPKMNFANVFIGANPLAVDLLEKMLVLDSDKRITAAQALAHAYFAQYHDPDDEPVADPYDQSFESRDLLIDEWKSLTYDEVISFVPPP
T5 sequence (Q16539 whole entry): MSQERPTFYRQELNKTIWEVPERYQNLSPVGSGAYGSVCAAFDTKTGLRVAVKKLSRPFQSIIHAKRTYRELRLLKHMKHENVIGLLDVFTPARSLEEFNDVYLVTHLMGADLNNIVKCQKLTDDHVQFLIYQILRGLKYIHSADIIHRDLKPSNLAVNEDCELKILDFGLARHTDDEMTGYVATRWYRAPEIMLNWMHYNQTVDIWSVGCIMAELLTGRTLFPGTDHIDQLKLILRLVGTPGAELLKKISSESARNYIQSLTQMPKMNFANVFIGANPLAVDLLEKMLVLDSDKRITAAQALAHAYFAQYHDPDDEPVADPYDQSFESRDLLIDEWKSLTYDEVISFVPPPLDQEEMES

Regarding `c1ccc(-c2[nH]cnc2-c2ccc3c(c2)COC3)nc1` [Example 1, 2-(4-(1,3-Dihydroisobenzofuran-5-yl)-1H-imidazol-5-yl)pyridine], the IC50 was 4000 nM at human p38α; 21 nM at human CK1δ; 31 nM on ALK5 [1] (ATP 25 μM, 40 minutes, 10 concentrations 0.3-10,000 nM). In addition, the “Ratio (p38α/CK1δ)” value at human CK1δ was determined as 190. The “ALK5 inhibition activity (in words)” value at ALK5 [1] (Test Example 2, comment on Table 3) is “good ALK5 inhibition activity”.
For `Cc1nc(-c2ccc3c(c2)COC3)c(-c2ccccn2)[nH]1` [Example 2, 2-(4-(1,3-Dihydroisobenzofuran-5-yl)-2-methyl-1H-imidazol-5-yl)pyridine], the IC50 on human p38α was over 10000 nM. Besides, at human CK1δ, the IC50 is 68 nM and the “Ratio (p38α/CK1δ)” value is reported as over 150.
With `Fc1ccc(-c2[nH]cnc2-c2ccc3c(c2)COC3)nc1` [Example 3, 2-(4-(1,3-Dihydroisobenzofuran-5-yl)-1H-imidazol-5-yl)-5-fluoropyridine], the IC50 on human p38α came to 4400 nM; on human CK1δ, 48 nM. Moreover, the “Ratio (p38α/CK1δ)” value at human CK1δ stood at 92.
In the case of `Cc1cccc(-c2[nH]cnc2-c2ccc3c(c2)COC3)n1` [Example 4, 2-(4-(1,3-Dihydroisobenzofuran-5-yl)-1H-imidazol-5-yl)-6-methylpyridine], the values for the IC50 on human p38α, on human CK1δ and at ALK5 [2] were 5200 nM, 110 nM and 46 nM, respectively. For the same compound, the “Ratio (p38α/CK1δ)” value at human CK1δ was determined as 47.
On to `c1ccc(-c2[nH]c(C3CC3)nc2-c2ccc3c(c2)COC3)nc1` [Example 5, 2-(2-Cyclopropyl-4-(1,3-dihydroisobenzofuran-5-yl)-1H-imidazol-5-yl)pyridine], for which the IC50 was 200 nM in assay [3], 330 nM on ALK5 [2] and over 3000 nM in assay [4].
